Values belong to the compound of their own block, whether it stands above or below them. Active and inactive are the calls of the source. The calls are words filed in the database; no cut-off is given here.
Key:
[1] = target: T1, Protein cereblon/Peptidyl-prolyl cis-trans isomerase FKBP1A/Nuclear receptor subfamily 1 group I member 2 (Homo sapiens, UniProt P62942+O75469+Q96SW2, F37V); experiment: (§1) Molecular glue activity at HA-tagged […]/2HA-tagged PXR fused HiBiT-tagged FKBP12 (F36V) mutant (unknown origin) expressed in HepG2 cells assessed as induction of PXR degradation by measuring change in CRBN expression at 0.001 uM measured after 24 hrs by Western blot analysis relative to control; assay type: cell-based; details: hepg2, 24 h
T1 sequence (P62942 2-108 F37V limits assumed, stated change not applied, one chain of several): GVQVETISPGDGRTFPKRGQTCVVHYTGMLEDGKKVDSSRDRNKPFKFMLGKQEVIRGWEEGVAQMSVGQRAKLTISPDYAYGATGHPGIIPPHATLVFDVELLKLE
T1 sequence (Q96SW2 whole entry, stated change not applied, one chain of several, the tested form may be a part): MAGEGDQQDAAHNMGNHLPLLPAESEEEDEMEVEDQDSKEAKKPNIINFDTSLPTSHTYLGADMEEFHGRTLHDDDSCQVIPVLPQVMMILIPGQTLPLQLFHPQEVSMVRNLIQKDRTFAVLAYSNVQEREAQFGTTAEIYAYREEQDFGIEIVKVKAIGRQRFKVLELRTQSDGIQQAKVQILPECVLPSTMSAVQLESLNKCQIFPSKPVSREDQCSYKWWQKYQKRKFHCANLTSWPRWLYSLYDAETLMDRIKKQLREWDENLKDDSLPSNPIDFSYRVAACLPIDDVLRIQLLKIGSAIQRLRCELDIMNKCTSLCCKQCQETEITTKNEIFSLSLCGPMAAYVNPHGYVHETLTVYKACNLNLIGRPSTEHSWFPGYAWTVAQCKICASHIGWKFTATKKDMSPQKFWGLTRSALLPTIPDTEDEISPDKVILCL

HepG2 [2] = experiment: Binding affinity to 2HA-tagged PXR fused HiBiT-tagged FKBP12 (F36V) mutant (unknown origin) expressed in HepG2 cells assessed as change in FKBP-PXR expression at 0.001 uM measured after 24 hrs by Western blot analysis relative to control; assay type: cell-based; details: Homo sapiens
[3] = target: T1, Protein cereblon/Peptidyl-prolyl cis-trans isomerase FKBP1A/Nuclear receptor subfamily 1 group I member 2; experiment: Molecular glue activity at HA-tagged CLR4-CRBN/2HA-tagged PXR fused HiBiT-tagged FKBP12 (F36V) mutant (unknown origin) expressed in HepG2 cells assessed as induction of PXR degradation measured after 24 hrs by Nano-Glo HiBiT assay; assay type: cell-based; details: hepg2, 24 h
[4] = target: T1, Protein cereblon/Peptidyl-prolyl cis-trans isomerase FKBP1A/Nuclear receptor subfamily 1 group I member 2; experiment: as §1, with “in FKBP-PXR” for “in CRBN”, “at 10” for “at 0.001”; assay type: cell-based; details: hepg2, 24 h
[5] = target: T1, Protein cereblon/Peptidyl-prolyl cis-trans isomerase FKBP1A/Nuclear receptor subfamily 1 group I member 2; experiment: as §1, with “in FKBP-PXR” for “in CRBN”, “at 0.0001” for “at 0.001”; assay type: cell-based; details: hepg2, 24 h
HepG2 [6] = experiment: Binding affinity to 2HA-tagged PXR fused HiBiT-tagged FKBP12 (F36V) mutant (unknown origin) expressed in HepG2 cells assessed as change in FKBP-PXR expression at 0.01 uM measured after 24 hrs by Western blot analysis relative to control; assay type: cell-based; details: Homo sapiens
[7] = target: T1, Protein cereblon/Peptidyl-prolyl cis-trans isomerase FKBP1A/Nuclear receptor subfamily 1 group I member 2; experiment: as §1, with “0.01” for “0.001”; assay type: cell-based; details: hepg2, 24 h
[8] = target: T1, Protein cereblon/Peptidyl-prolyl cis-trans isomerase FKBP1A/Nuclear receptor subfamily 1 group I member 2; experiment: as §1, with “in FKBP-PXR” for “in CRBN”, “at 0.01” for “at 0.001”; assay type: cell-based; details: hepg2, 24 h
[9] = target: T1, Protein cereblon/Peptidyl-prolyl cis-trans isomerase FKBP1A/Nuclear receptor subfamily 1 group I member 2; experiment: Molecular glue activity at HA-tagged […]/2HA-tagged PXR fused HiBiT-tagged FKBP12 (F36V) mutant (unknown origin) expressed in HepG2 cells assessed as induction of PXR degradation by measuring change in CRBN expression at 10 uM measured after 24 hrs by Western blot analysis relative to control; assay type: cell-based; details: hepg2, 24 h
HepG2 [10] = experiment: Binding affinity to 2HA-tagged PXR fused HiBiT-tagged FKBP12 (F36V) mutant (unknown origin) expressed in HepG2 cells assessed as change in FKBP-PXR expression at 1 uM measured after 24 hrs by Western blot analysis relative to control; assay type: cell-based; details: Homo sapiens
[11] = target: T1, Protein cereblon/Peptidyl-prolyl cis-trans isomerase FKBP1A/Nuclear receptor subfamily 1 group I member 2; experiment: as §1, with “in FKBP-PXR” for “in CRBN”, “at 1” for “at 0.001”; assay type: cell-based; details: hepg2, 24 h
HepG2 [12] = experiment: Binding affinity to 2HA-tagged PXR fused HiBiT-tagged FKBP12 (F36V) mutant (unknown origin) expressed in HepG2 cells assessed as change in FKBP-PXR expression at 0.1 uM measured after 24 hrs by Western blot analysis relative to control; assay type: cell-based; details: Homo sapiens
HepG2 [13] = experiment: Binding affinity to 2HA-tagged PXR fused HiBiT-tagged FKBP12 (F36V) mutant (unknown origin) expressed in HepG2 cells assessed as change in FKBP-PXR expression at 10 uM measured after 24 hrs by Western blot analysis relative to control; assay type: cell-based; details: Homo sapiens
[14] = target: T1, Protein cereblon/Peptidyl-prolyl cis-trans isomerase FKBP1A/Nuclear receptor subfamily 1 group I member 2; experiment: Molecular glue activity at HA-tagged […]/2HA-tagged PXR fused HiBiT-tagged FKBP12 (F36V) mutant (unknown origin) expressed in HepG2 cells assessed as induction of PXR degradation by measuring change in CRBN expression at 1 uM measured after 24 hrs by Western blot analysis relative to control; assay type: cell-based; details: hepg2, 24 h
[15] = target: T1, Protein cereblon/Peptidyl-prolyl cis-trans isomerase FKBP1A/Nuclear receptor subfamily 1 group I member 2; experiment: as §1, with “0.0001” for “0.001”; assay type: cell-based; details: hepg2, 24 h
[16] = target: T1, Protein cereblon/Peptidyl-prolyl cis-trans isomerase FKBP1A/Nuclear receptor subfamily 1 group I member 2; experiment: (§2) Molecular glue activity at HA-tagged […]/2HA-tagged PXR fused HiBiT-tagged FKBP12 (F36V) mutant (unknown origin) expressed in HepG2 cells assessed as induction of PXR degradation by measuring change in CRBN expression at 0.1 uM measured after 24 hrs by Western blot analysis relative to control; assay type: cell-based; details: hepg2, 24 h
[17] = target: T1, Protein cereblon/Peptidyl-prolyl cis-trans isomerase FKBP1A/Nuclear receptor subfamily 1 group I member 2; experiment: as §1, with “in FKBP-PXR” for “in CRBN”; assay type: cell-based; details: hepg2, 24 h
HepG2 [18] = experiment: Binding affinity to 2HA-tagged PXR fused HiBiT-tagged FKBP12 (F36V) mutant (unknown origin) expressed in HepG2 cells assessed as change in FKBP-PXR expression at 0.0001 uM measured after 24 hrs by Western blot analysis relative to control; assay type: cell-based; details: Homo sapiens
[19] = target: T1, Protein cereblon/Peptidyl-prolyl cis-trans isomerase FKBP1A/Nuclear receptor subfamily 1 group I member 2; experiment: as §2, with “in FKBP-PXR” for “in CRBN”; assay type: cell-based; details: hepg2, 24 h
[20] = target: Protein cereblon/DNA damage-binding protein 1 (Homo sapiens, UniProt Q96SW2); experiment: Displacement of BODIPY FL thalidomide from 6His-tagged CRBN/DDB1 (unknown origin) expressed in baculovirus infected Sf9 insect cells incubated for 1 min under shaking condition followed by 60 mins incubation under dark condition by TR-FRET assay
Chain of Protein cereblon/DNA damage-binding protein 1 (Q96SW2 whole entry): as the sequence (Q96SW2 whole entry, stated change not applied, one chain of several, the tested form may be a part) above
Chain of Protein cereblon/DNA damage-binding protein 1 (Q16531 whole entry, further chain): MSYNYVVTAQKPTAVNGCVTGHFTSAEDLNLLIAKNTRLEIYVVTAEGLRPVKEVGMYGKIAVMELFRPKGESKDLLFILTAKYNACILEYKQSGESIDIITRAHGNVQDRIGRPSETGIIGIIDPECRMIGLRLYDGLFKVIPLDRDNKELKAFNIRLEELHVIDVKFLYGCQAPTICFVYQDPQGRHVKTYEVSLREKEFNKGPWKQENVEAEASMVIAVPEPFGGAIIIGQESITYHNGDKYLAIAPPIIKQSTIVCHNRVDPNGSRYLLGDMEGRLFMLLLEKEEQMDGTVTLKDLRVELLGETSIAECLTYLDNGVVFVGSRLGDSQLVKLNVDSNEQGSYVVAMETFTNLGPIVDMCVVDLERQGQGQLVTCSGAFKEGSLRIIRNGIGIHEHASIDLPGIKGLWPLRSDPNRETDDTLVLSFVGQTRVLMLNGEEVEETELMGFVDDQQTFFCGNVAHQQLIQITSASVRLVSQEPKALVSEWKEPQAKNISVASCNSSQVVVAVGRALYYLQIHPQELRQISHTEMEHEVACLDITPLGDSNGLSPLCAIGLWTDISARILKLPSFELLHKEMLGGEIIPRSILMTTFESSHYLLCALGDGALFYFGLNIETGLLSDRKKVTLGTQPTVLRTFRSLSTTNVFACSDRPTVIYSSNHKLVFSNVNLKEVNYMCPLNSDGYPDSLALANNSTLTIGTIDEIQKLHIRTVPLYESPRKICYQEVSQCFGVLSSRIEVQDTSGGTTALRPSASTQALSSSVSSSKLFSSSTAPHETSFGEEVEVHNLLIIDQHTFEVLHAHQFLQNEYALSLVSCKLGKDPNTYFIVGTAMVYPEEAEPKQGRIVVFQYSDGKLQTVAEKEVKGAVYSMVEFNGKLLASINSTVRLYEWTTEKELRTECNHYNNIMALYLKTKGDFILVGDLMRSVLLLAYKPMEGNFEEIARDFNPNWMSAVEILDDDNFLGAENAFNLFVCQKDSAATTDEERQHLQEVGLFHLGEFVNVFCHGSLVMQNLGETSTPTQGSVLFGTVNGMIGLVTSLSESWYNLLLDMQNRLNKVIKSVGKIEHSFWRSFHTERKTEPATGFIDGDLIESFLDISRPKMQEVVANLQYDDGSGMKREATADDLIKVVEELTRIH

SNU-C4 [21] = experiment: Down regulation of FOS expression in PXR knock in human SNU-C4 cells at 5 uM measured after 12 hrs by TMT-MS analysis; assay type: functional, cell-based
SNU-C4 [22] = experiment: Down regulation of PXR mRNA expression in PXR knock in human SNU-C4 cells at 10 uM measured after 2 to 48 hrs by RT-qPCR analysis; assay type: functional, cell-based; details: time 2-48 hrs
SNU-C4 [23] = experiment: Up regulation of CYP1A1 expression in PXR knock in human SNU-C4 cells at 5 uM measured after 12 hrs by TMT-MS analysis; assay type: functional, cell-based
SNU-C4 [24] = experiment: Cytotoxicity against PXR knock in human SNU-C4 cells measured after 72 hrs by celltiter-glo assay; assay type: functional
SNU-C4 [25] = experiment: […] of ZFP91 expression in PXR knock in human SNU-C4 cells at 5 uM measured after 12 hrs by TMT-MS analysis; assay type: functional, cell-based
[26] = target: T2, Nuclear receptor subfamily 1 group I member 2 (Homo sapiens, UniProt O75469); experiment: Induction of PXR degradation in PXR knock in human SNU-C4 cells at 5 uM measured after 12 hrs by Western blot analysis relative to control; assay type: cell-based; details: snu-c4, 12 h
T2 sequence (O75469 whole entry): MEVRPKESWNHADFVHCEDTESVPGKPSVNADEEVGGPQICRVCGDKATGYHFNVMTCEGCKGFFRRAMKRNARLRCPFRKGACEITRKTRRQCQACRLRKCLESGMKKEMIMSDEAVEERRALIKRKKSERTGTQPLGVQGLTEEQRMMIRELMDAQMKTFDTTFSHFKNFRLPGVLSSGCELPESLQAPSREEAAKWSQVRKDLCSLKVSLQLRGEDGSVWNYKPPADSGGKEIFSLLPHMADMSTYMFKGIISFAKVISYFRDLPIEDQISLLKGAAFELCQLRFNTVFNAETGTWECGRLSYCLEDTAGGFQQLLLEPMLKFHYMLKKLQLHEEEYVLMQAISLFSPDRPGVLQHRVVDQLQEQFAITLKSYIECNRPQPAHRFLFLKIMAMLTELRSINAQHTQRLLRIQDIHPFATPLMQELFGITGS

[27] = target: T2, Nuclear receptor subfamily 1 group I member 2; experiment: Induction of PXR degradation in PXR knock in human SNU-C4 cells at 10 uM measured after 2 to 48 hrs by Western blot analysis; assay type: cell-based; details: snu-c4, 10 µM, time 2-48 hrs
[28] = target: Eukaryotic peptide chain release factor GTP-binding subunit ERF3A (Homo sapiens) (UniProt P15170); experiment: Induction of GSPT1 degradation in PXR knock in human SNU-C4 cells at 0.001 to 10 uM measured after 24 hrs by Western blot analysis; assay type: cell-based; details: dose 0.001-10 µM
Chain of Eukaryotic peptide chain release factor GTP-binding subunit ERF3A (Homo sapiens) (P15170 whole entry): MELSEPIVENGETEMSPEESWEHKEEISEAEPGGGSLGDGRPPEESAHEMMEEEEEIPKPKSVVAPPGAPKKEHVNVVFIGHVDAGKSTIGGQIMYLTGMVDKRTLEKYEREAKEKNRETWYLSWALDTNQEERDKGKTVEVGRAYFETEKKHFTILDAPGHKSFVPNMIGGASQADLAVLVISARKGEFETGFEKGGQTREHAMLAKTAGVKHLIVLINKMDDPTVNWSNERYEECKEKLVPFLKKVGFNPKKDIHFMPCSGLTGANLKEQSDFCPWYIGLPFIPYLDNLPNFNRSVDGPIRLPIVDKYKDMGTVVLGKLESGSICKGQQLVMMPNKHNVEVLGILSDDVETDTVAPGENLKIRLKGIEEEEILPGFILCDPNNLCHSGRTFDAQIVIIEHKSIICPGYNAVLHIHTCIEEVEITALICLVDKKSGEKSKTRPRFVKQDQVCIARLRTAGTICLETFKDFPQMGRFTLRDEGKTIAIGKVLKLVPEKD

SNU-C4 [29] = experiment: […] of GSPT2 expression in PXR knock in human SNU-C4 cells at 5 uM measured after 12 hrs by TMT-MS analysis; assay type: functional, cell-based
SNU-C4 [30] = experiment: […] of GSPT1 expression in PXR knock in human SNU-C4 cells at 5 uM measured after 12 hrs by TMT-MS analysis; assay type: functional, cell-based
SNU-C4 [31] = experiment: Up regulation of BRIP1 expression in PXR knock in human SNU-C4 cells at 5 uM measured after 12 hrs by TMT-MS analysis; assay type: functional, cell-based
[32] = target: T2, Nuclear receptor subfamily 1 group I member 2; experiment: Induction of PXR degradation in PXR knock in human SNU-C4 cells at 0.0001 to 1 uM measured after 24 hrs by Western blot analysis; assay type: cell-based; details: snu-c4, 24 h, dose 0.0001-1 µM

fold change (FC) [1]: 0.9 | Activity [3]: Active | fold change (FC) [4]: 1.4 | fold change (FC) [5]: 0.8 | fold change (FC) [7]: 1.1 | fold change (FC) [8]: 0.5 | fold change (FC) [9]: 3.6 | fold change (FC) [11]: 0.8 | fold change (FC) [14]: 2.2 | fold change (FC) [15]: 0.9 | fold change (FC) [16]: 1.3 | fold change (FC) [17]: 0.7 | fold change (FC) [19]: 0.5
Structure (SMILES): CC[C@H](C(=O)N1CCCC[C@H]1C(=O)O[C@H](CCc1ccc(OC)c(OC)c1)c1ccccc1OCC(=O)NCCCCCCOc1cccc2c1C(=O)N(C1CCC(=O)NC1=O)C2=O)c1cc(OC)c(OC)c(OC)c1 (some centres undefined)
fold change (FC) (HepG2 [2]): 1.3 | fold change (FC) (HepG2 [6]): 1.2 | fold change (FC) (HepG2 [10]): 0.9 | fold change (FC) (HepG2 [12]): 1.1 | fold change (FC) (HepG2 [13]): 1 | fold change (FC) (HepG2 [18]): 1.1

Structure (SMILES): CC(C)(C)c1cc(N)cc(Oc2cccc3c2C(=O)N(C2CCC(=O)NC2=O)C3=O)c1 (centres undefined)
EC50 [20]: 14 nM

Structure (SMILES): COc1ccc(OC)c(-n2nnc(C(=O)Nc3cc(OC(=O)CNc4cccc5c4C(=O)N(C4CCC(=O)NC4=O)C5=O)cc(C(C)(C)C)c3)c2C)c1 (centres undefined)
EC50 [20]: 17 nM

Structure (SMILES): COc1ccc(OC)c(-n2nnc(C(=O)Nc3cc(NCCNc4cccc5c4C(=O)N(C4CCC(=O)NC4=O)C5=O)cc(C(C)(C)C)c3)c2C)c1 (centres undefined)
EC50 [20]: 24 nM

Structure (SMILES): COc1ccc(OC)c(-n2nnc(S(=O)(=O)c3ccc(C(C)(C)C)cc3)c2C)c1
EC50 [20]: > 3000 nM

Structure (SMILES): COc1ccc(OC)c(-n2nnc(C(=O)Nc3cc(OCCNc4cccc5c4C(=O)N(C4CCC(=O)NC4=O)C5=O)cc(C(C)(C)C)c3)c2C)c1 (centres undefined)
EC50 [20]: 23 nM

Structure (SMILES): COc1ccc(OC)c(-n2nnc(C(=O)Nc3cc(NC(=O)Nc4cccc5c4C(=O)N(C4CCC(=O)NC4=O)C5=O)cc(C(C)(C)C)c3)c2C)c1 (centres undefined)
EC50 [20]: 410 nM

Activity ([3]; DDE = dose-dependent effect): Dde | Activity [26]: 50% | Activity [27]: Active | Activity [28]: Active
Structure (SMILES): COc1ccc(OC)c(-n2nnc(C(=O)Nc3cc(Oc4cccc5c4C(=O)N(C4CCC(=O)NC4=O)C5=O)cc(C(C)(C)C)c3)c2C)c1 (centres undefined)
Activity (SNU-C4 [21]): Active | Activity (SNU-C4 [22]): Active | EC50 [20]: 31 nM | Activity (SNU-C4 [23]): Active | CC50 (SNU-C4 [24]): 3.3 nM | Activity (SNU-C4 [25]): Active | Activity (SNU-C4 [29]): Active | Activity (SNU-C4 [30]): Active | Activity (SNU-C4 [31]): Active

Structure (SMILES): CC(=O)Nc1cc(Nc2cccc3c2C(=O)N(C2CCC(=O)NC2=O)C3=O)cc(C(C)(C)C)c1 (centres undefined)
EC50 [20]: 3.2 nM

Structure (SMILES): CC(=O)Nc1cc(Oc2cccc3c2C(=O)N(C2CCC(=O)NC2=O)C3=O)cc(C(C)(C)C)c1 (centres undefined)
EC50 [20]: 11 nM

Structure (SMILES): COc1ccc(OC)c(-n2nnc(C(=O)Nc3cc(NC(=O)CNc4cccc5c4C(=O)N(C4CCC(=O)NC4=O)C5=O)cc(C(C)(C)C)c3)c2C)c1 (centres undefined)
EC50 [20]: 15 nM

Structure (SMILES): COc1ccc(OC)c(-n2nnc(C(=O)Nc3cc(OCC(=O)Nc4cccc5c4C(=O)N(C4CCC(=O)NC4=O)C5=O)cc(C(C)(C)C)c3)c2C)c1 (centres undefined)
EC50 [20]: > 333 nM

Activity [32]: Active
Structure (SMILES): Cc1ccc(NC(=O)NCc2ccc3c(c2)CN(C2CCC(=O)NC2=O)C3=O)cc1Cl (centres undefined)
CC50 (SNU-C4 [24]): 440 nM

— ChEMBL document CHEMBL5143746, “SJPYT-195: A Designed Nuclear Receptor Degrader That Functions as a Molecular Glue Degrader of GSPT1” (ACS Med Chem Lett, 2022)
